From US8569039B2, “Ethanol resistance Saccharomyces cerevisiae GP-01 by protoplast fusion, method for manufacturing thereof, method for manufacturing yeast containing high content of bio organic germanium by using Saccharomyces cerevisiae GP-01 and high water soluble sodium metagermanate as a germanium source” (Geranti Pharm Ltd., priority 2008, dated 2013)

Legend:
[1] = tested on: yeast GP-01 (KCTC11399BP); test: Bio-germanium content inoculated into the yeast by content of germanium in the solution; format: cell-based, Saccharomyces Cerevisiae; conditions: for Bio-germanium content inoculated into the yeast: 20 hours, pH 10, 40° C.
Description: The broth medium containing the mutated Saccharomyces Cerevisiae, yeast GP-01 (KCTC11399BP), was centrifuged to collect the palletized yeast. The collected pelletized yeast was added in each of the solutions of sodium metagermanate (Na2GeO3) with different concentrations of germanium. The prepared solutions were cultivated for 20 hours at pH 10 and temperature 40° C.
In order to determine the content of bio-germanium in the yeast GP-01, 1 g of the cultivated and dried yeast GP-01 was added in 30 ml of nitric acid. The obtained sample was heated to be decomposed. After adjusting pH value to 6, 1 ml of the sample was mixed with 1 ml of phenylfluorone and 1 ml of cyclo nucleic acid. The obtained sample was stationary for 30 hours at 30° C. and then determined the content of germanium in the yeast GP-01 by using UV spectrophotometer at 525 nm. […]

[2] = tested on: yeast GP-01 (KCTC 11399BP); test: Bio-germanium content in yeast by mixing ratio of yeast and Ge solution; format: cell-based, Saccharomyces Cerevisiae; conditions: for Bio-germanium content in yeast GP-01: 20 hours, pH 10, 40° C.
Description: (§1) In order to determine the content of bio-germanium in the yeast GP-01, 1 g of the cultivated and dried yeast GP-01 was added in 30 ml of nitric acid. The obtained sample was heated to be decomposed. After adjusting pH value to 6, 1 ml of the sample was mixed with 1 ml of phenylfluorone and 1 ml of cyclo nucleic acid. The obtained sample was stationary for 30 hours at 30° C. and then determined the content of germanium in the yeast GP-01 by using UV spectrophotometer at 525 nm.
The broth containing the ethanol-resistant yeast GP-01 as prepared in the Example 1 was centrifuged to collect the yeast. […] The obtained solutions were cultivated for 20 hours at pH 10 and temperature 40° C.
Also, as a control, the same procedure described in Example 3 was performed, except that a solution of (inorganic) germanium dioxide (GeO2) was used instead of sodium metagermanate (Na2GeO3).
The contents of germanium in the yeast GP-01 (KCTC 11399BP) was measured by the same method as Example 2.

[3] = Solubility of the germanium source; format: physicochemical; conditions: 25° C.
Description: The solution of Sodium Metagermanate (Na2GeO3) was prepared by dissolving sodium carbonate (Na2CO3, Kanto, Japan) in water, adding germanium dioxide (GeO2, PPM GmbH, Germany) at the equivalent ratio of 1:1 against the said sodium carbonate, and sterilized the obtained solution.

[4] = tested on: Saccharomyces Cerevisiae (KCTC 7904); test: Bio-germanium content inoculated into the yeast by content of germanium in the solution; format: cell-based; conditions: KCTC7904; for Bio-germanium content inoculated into the yeast: 20 hours, pH 10, 40° C.
[5] = tested on: yeast GP-01 (KCTC11399BP); test: Germanium inoculated into the yeast by pH, temperature and surfactant concentration; format: cell-based, Saccharomyces Cerevisiae; conditions: 5,000 ppm germanium, ratio 1:0.5, 20 hours
Description: as §1
The broth containing the ethanol-resistant yeast GP-01 as prepared in the Example 1 was centrifuged to collect the yeast. At the ratio of 1:0.5, the collected yeast was added in the solution of sodium metagermanate (Na2GeO3) having 5,000 ppm of germanium. After adding surfactant (Twin-80), the obtained solution was cultivated for 20 hours by various conditions for pH, temperature or the broth containing germanium.
The pH was regulated by using 1N NaOH, and a number of tests were repeatedly performed under different temperatures and concentrations of surfactant.
When measuring the content of germanium, the broth without adding the surfactant was used as a control.
The measurement of content of bio-germanium in the yeast GP-01 (KCTC11399BP) of the present invention was made by the same method as Example 2.

[6] = germanium in the solution 3,000 ppm
[7] = germanium in the solution 4,000 ppm
[8] = germanium in the solution 5,000 ppm
[9] = germanium in the solution 10,000 ppm
[10] = germanium in the solution 15,000 ppm

[Na+].[Na+].[O]=[Ge]([O-])[O-] [Na2GeO3 solution, sodium metagermanate]
Yield (%) of germanium inoculated [1, 6]: 155% | Bio-germanium content inoculated into the yeast [1, 6]: 4,640 ppm | Yield (%) of germanium inoculated [1, 7]: 171% | Bio-germanium content inoculated into the yeast [1, 7]: 6,840 ppm | Yield (%) of germanium inoculated [1, 8]: 194% | Bio-germanium content inoculated into the yeast [1, 8]: 9,700 ppm | Yield (%) of germanium inoculated [1, 9]: 130% | Bio-germanium content inoculated into the yeast [1, 9]: 13,000 ppm | Yield (%) of germanium inoculated [1, 10]: 110% | Bio-germanium content inoculated into the yeast [1, 10]: 16,500 ppm | increase of content of bio-germanium versus germanium dioxide ([2]; Na2GeO3 solution compared with germanium dioxide, Table 3): 2-4 times | Bio-germanium content in yeast GP-01 ([2]; mixing ratio yeast GP-01:Ge solution 1:0.2): 4,350 ppm | Bio-germanium content in yeast GP-01 ([2]; mixing ratio yeast GP-01:Ge solution 1:0.5): 14,800 ppm | Bio-germanium content in yeast GP-01 ([2]; mixing ratio yeast GP-01:Ge solution 1:1): 12,600 ppm | Bio-germanium content in yeast GP-01 ([2]; mixing ratio yeast GP-01:Ge solution 1:2): 9,760 ppm | Bio-germanium content in yeast GP-01 ([2]; mixing ratio yeast GP-01:Ge solution 1:3): 8,720 ppm | solubility [3]: 500 mg/mL | Yield (%) of germanium inoculated [4, 6]: 32% | Bio-germanium content inoculated into the yeast [4, 6]: 950 ppm | Yield (%) of germanium inoculated [4, 7]: 38% | Bio-germanium content inoculated into the yeast [4, 7]: 1,500 ppm | Yield (%) of germanium inoculated [4, 8]: 47% | Bio-germanium content inoculated into the yeast [4, 8]: 2,370 ppm | Yield (%) of germanium inoculated [4, 9]: 45% | Bio-germanium content inoculated into the yeast [4, 9]: 4,500 ppm | Yield (%) of germanium inoculated [4, 10]: 38% | Bio-germanium content inoculated into the yeast [4, 10]: 5,730 ppm | Bio-germanium inoculated ([5]; Control: broth without adding the surfactant): 1,720 ppm | Bio-germanium inoculated ([5]; pH 4.0): 2,190 ppm | Bio-germanium inoculated ([5]; pH 5.0): 3,254 ppm | Bio-germanium inoculated ([5]; pH 6.0): 5,320 ppm | Bio-germanium inoculated ([5]; pH 6.5): 5,790 ppm | Bio-germanium inoculated ([5]; pH 7.0): 9,750 ppm | Bio-germanium inoculated ([5]; pH 8.0): 10,700 ppm | Bio-germanium inoculated ([5]; pH 9.0): 15,200 ppm | Bio-germanium inoculated ([5]; pH 10.0): 16,300 ppm | Bio-germanium inoculated ([5]; pH 11.0): 9,320 ppm | Bio-germanium inoculated ([5]; surfactant Twin-80 0.1 wt %): 8,743 ppm | Bio-germanium inoculated ([5]; surfactant Twin-80 0.2 wt %): 16,250 ppm | Bio-germanium inoculated ([5]; surfactant Twin-80 0.3 wt %): 12,530 ppm | Bio-germanium inoculated ([5]; surfactant Twin-80 0.4 wt %): 9,670 ppm | Bio-germanium inoculated ([5]; surfactant Twin-80 0.5 wt %): 7,624 ppm | Bio-germanium inoculated ([5]; surfactant Twin-80 0.6 wt %): 5,670 ppm | Bio-germanium inoculated ([5]; surfactant Twin-80 0.7 wt %): 4,830 ppm | Bio-germanium inoculated ([5]; surfactant Twin-80 0.8 wt %): 2,700 ppm | Bio-germanium inoculated ([5]; temperature 20 ° C.): 3,102 ppm | Bio-germanium inoculated ([5]; temperature 30 ° C.): 9,648 ppm | Bio-germanium inoculated ([5]; temperature 35 ° C.): 13,250 ppm | Bio-germanium inoculated ([5]; temperature 40 ° C.): 14,700 ppm | Bio-germanium inoculated ([5]; temperature 45 ° C.): 8,350 ppm | Bio-germanium inoculated ([5]; temperature 50 ° C.): 4,564 ppm
